Broadly, the pest or weed control is the degree to which the test organism was suppressed or injured, in per cent. A lower pest or weed control goes with weak suppression.

Consider three compounds from patent US20260007133A1, “HERBICIDAL COMPOSITION COMPRISING AZINE COMPOUNDS” (BASF SE, priority 2022, published 2026).

Molecules are shown by their SMILES.

What all share (format): in vivo
The test system of one assay is Commelina benghalensis. The assay is described as follows: Greenhouse pre-emergence (PRE) herbicidal test on COMBE. Conditions: PRE; for % activity: COMBE, 18 DAT. The essentials: (§1)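 Visual 0–100 rating at 20 days after treatment; 0 = normal growth, 100 = no emergence or complete kill of shoots. Pre-emergent application to seeded pots of loamy sand (~3.0% humus), species-dependent temperature 10-25° C or 20-35° C.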

The subject of the next assay is Digitaria sanguinalis. The assay can be described thus: Greenhouse post-emergence (POST) herbicidal test on DIGSA. The following applies: POST, DIGSA, 18 DAT. Put shortly:
(§2)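 Weeds grown in loamy sand (~3.0% humus) to 3–15 cm were sprayed post-emergence with compounds suspended or emulsified in water, formulated as 5% emulsion concentrates. Plants were kept at 10-25 °C or 20-35 °C by species. Damage was scored 0–100 (100 = complete destruction) at 20 DAT.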

In a further assay the test system is Setaria viridis. The assay is described as follows: Greenhouse pre-emergence (PRE) herbicidal test on SETVI. The following applies: PRE. Put shortly: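 Damage was rated visually on a 0 to 100 scale at 20 days after treatment, where 0 meant normal growth and 100 meant no emergence or complete kill of above-ground parts. Compounds were applied in water to freshly sown loamy-sand pots.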

The subject of assay [1] is Echinochloa crus-galli. The assay is described as follows: Greenhouse post-emergence (POST) herbicidal test on ECHCG. Conditions: POST, ECHCG, 18 DAT. Put shortly:
as §2

Assay [2] concerns Abutilon theophrasti. The assay can be described thus: Greenhouse pre-emergence (PRE) herbicidal test on ABUTH. The following applies: PRE; for % activity: ABUTH, 18 DAT. The essentials:
as §1

Assay [3] deals with Amaranthus retroflexus. The assay can be described thus: Greenhouse post-emergence (POST) herbicidal test on AMARE. The following applies: POST. Put shortly: as §2
The subject of assay [4] is Euphorbia heterophylla. The assay is described as follows: Greenhouse pre-emergence (PRE) herbicidal test on EPHHL. The following applies: PRE; for % activity: EPHHL, 18 DAT. The essentials:
as §1

In a further assay the test system is Geranium pusillum. The assay is described as follows: Greenhouse post-emergence (POST) herbicidal test on GERPU. The following applies: POST; for % activity: GERPU, 18 DAT. Put shortly: as §2
For assay [5], the system named is Echinochloa crus-galli. The assay is described as follows: Greenhouse pre-emergence (PRE) herbicidal test on ECHCG. Conditions: PRE, ECHCG, 18 DAT.
In assay [6] the test system is Euphorbia heterophylla. The assay is described as follows: Greenhouse post-emergence (POST) herbicidal test on EPHHL. The following applies: POST. The essentials:
as §2

Assay [7] has as its system Amaranthus retroflexus. The assay is described as follows: Greenhouse pre-emergence (PRE) herbicidal test on AMARE. The following applies: PRE; for % activity: AMARE, 18 DAT. As to the method:
(§3) The culture containers used were plastic pots containing loamy sand with approximately 3.0% of humus as substrate. The seeds of the test plants were sown separately for each species.
The containers were irrigated gently to promote germination and growth and subsequently covered with transparent plastic hoods until the plants had rooted.
(§4) Depending on the species, the plants were kept at 10-25° C. and 20-35° C., respectively.
(§5) The test period extended over 2 to 4 weeks. During this time, the plants were tended and their response to the individual treatments was evaluated.
(§6) Evaluation was carried out using a scale from 0 to 100. 100 means no emergence of the plants, or complete destruction of at least the above-ground parts, and 0 means no damage or normal course of growth. A good herbicidal activity is given at values of at least 70, and very good herbicidal activity is given at values of at least 85.
As indicated application was either post emergent (POST) at the respective growth stage (GS) of the weed (BBCH code), or pre-emergent (PRE). […]

In a further assay the test system is Alopecurus myosuroides. The assay can be described thus: Greenhouse pre-emergence (PRE) herbicidal test on ALOMY. Conditions: PRE; for % activity: ALOMY, 18 DAT. Put shortly: as §1
In another assay the test system is Lolium multiflorum. The assay can be described thus: Greenhouse pre-emergence (PRE) herbicidal test on LOLMU. Conditions: PRE; for % activity: LOLMU, 18 DAT. The essentials: as §1
Assay [8] relates to Abutilon theophrasti. The assay is described as follows: Greenhouse post-emergence (POST) herbicidal test on ABUTH. The following applies: POST; for % activity: ABUTH, 18 DAT. The essentials:
as §2

In a further assay the test system is Ambrosia artemisiifolia. The assay can be described thus: Greenhouse pre-emergence (PRE) herbicidal test on AMBEL. The following applies: Ambrosia artemisiifolia, pre-emergence, 480 h, PRE, 20 DAT.
For the next assay, the system named is Ipomoea hederacea. The assay is described as follows: Greenhouse post-emergence (POST) herbicidal test on IPOHE. The following applies: Ipomoea hederacea, post-emergence, 480 h, POST, 20 DAT. As to the method: as §3
For the post-emergence treatment, the test plants were grown to a plant height of from 3 to 15 cm, depending on the plant habit, and only then treated with the active compounds which had been suspended or emulsified in water. To this end, the test plants were either sown directly, and grown in the same containers, or they were first grown separately as seedlings and transplanted into the test containers a few days prior to treatment.
as §4, §5, §6
If not stated differently, the respective components A and B, and if appropriate, C were formulated as a 5% by weight strength emulsion concentrate and, with addition of the amount of solvent system, introduced into the spray liquor used for applying the active compound.
As indicated application was either post emergent (POST) at the respective growth stage (GS) of the weed (BBCH code), or pre-emergent (PRE).
Assessment was 20 days after treatment (DAT).

In the case of `Cc1ccc2c(c1)[C@H](Nc1nc(N)nc(C(C)F)n1)[C@@H](C)C2` (stereo partly shown) [Indaziflam, indaziflam], the “% activity” value with Commelina benghalensis (Indaziflam solo 1 gai/ha) is listed as 20%; in the assay with Commelina benghalensis (Indaziflam solo 2 gai/ha) it was 10%; with Commelina benghalensis (Indaziflam solo 8 gai/ha), 40%; with Digitaria sanguinalis (Indaziflam solo 1 gai/ha), 0%; with Digitaria sanguinalis (Indaziflam solo 2 gai/ha), 5%; in the assay on Digitaria sanguinalis (Indaziflam solo 8 gai/ha), 20%. For the same compound, the “% activity” value in the assay on Setaria viridis (SETVI, Indaziflam solo 1 gai/ha, 18 DAT) amounted to 40%; with Echinochloa crus-galli [1] (Indaziflam solo 1 gai/ha), 0%; in the assay on Echinochloa crus-galli [1] (Indaziflam solo 2 gai/ha) it was 0%; in the assay with Echinochloa crus-galli [1] (Indaziflam solo 4 gai/ha), 20%; in the assay on Echinochloa crus-galli [1] (Indaziflam solo 8 gai/ha) it was 60%; with Abutilon theophrasti [2] (Indaziflam solo 1 gai/ha) it was 0%. The “% activity” value worked out at 25% in the assay on Abutilon theophrasti [2] (Indaziflam solo 4 gai/ha); 65% in the assay with Amaranthus retroflexus [3] (AMARE, Indaziflam solo 1 gai/ha, 18 DAT); 10% in the assay with Euphorbia heterophylla [4] (Indaziflam solo 1 gai/ha); 5% in the assay on Euphorbia heterophylla [4] (Indaziflam solo 4 gai/ha); 50% in the assay on Geranium pusillum (Indaziflam solo 4 gai/ha); 50% in the assay with Geranium pusillum (Indaziflam solo 8 gai/ha). The “% activity” value was 30% in the assay with Echinochloa crus-galli [5] (Indaziflam solo 1 gai/ha); 85% in the assay on Echinochloa crus-galli [5] (Indaziflam solo 4 gai/ha); 80% in the assay with Echinochloa crus-galli [5] (Indaziflam solo 8 gai/ha); 40% in the assay with Euphorbia heterophylla [6] (EPHHL, Indaziflam solo 4 gai/ha, 18 DAT); 10% in the assay with Amaranthus retroflexus [7] (Indaziflam solo 1 gai/ha); 50% in the assay on Amaranthus retroflexus [7] (Indaziflam solo 4 gai/ha). In addition, the “% activity” value is reported as 10% in the assay on Alopecurus myosuroides (Indaziflam solo 1 gai/ha); 75% in the assay with Alopecurus myosuroides (Indaziflam solo 4 gai/ha); 10% in the assay on Lolium multiflorum (Indaziflam solo 1 gai/ha); 10% in the assay on Lolium multiflorum (Indaziflam solo 2 gai/ha); 40% in the assay on Lolium multiflorum (Indaziflam solo 4 gai/ha); 15% in the assay on Abutilon theophrasti [8] (Indaziflam solo 2 gai/ha). The “% activity” value with Abutilon theophrasti [8] (Indaziflam solo 4 gai/ha) is on record as 30%.

In the case of `CCNc1nc(Cl)nc(NC(C)(C)C)n1` [Terbutylazine], the pest or weed control at 15.6 g/ha with Commelina benghalensis (Commelina benghalensis, pre-emergence, 480 h, 15.6 gai/ha, 20 DAT) was 0%; in the assay with Ambrosia artemisiifolia (15.6 gai/ha), 0%; in the assay with Abutilon theophrasti [2] (Abutilon theophrasti, pre-emergence, 480 h, 15.6 gai/ha, 20 DAT) it was 0%; with Ipomoea hederacea (15.6 gai/ha), 0%; with Alopecurus myosuroides (Alopecurus myosuroides, pre-emergence, 480 h, 15.6 gai/ha, 20 DAT), 0%; in the assay with Lolium multiflorum (Lolium multiflorum, pre-emergence, 480 h, 15.6 gai/ha, 20 DAT), 0%. The pest or weed control at 62.5 g/ha in the assay on Commelina benghalensis (Commelina benghalensis, pre-emergence, 480 h, 62.5 gai/ha, 20 DAT) worked out at 0%; in the assay on Abutilon theophrasti [2] (Abutilon theophrasti, pre-emergence, 480 h, 62.5 gai/ha, 20 DAT) it was 0%; in the assay on Amaranthus retroflexus [3] (Amaranthus retroflexus, post-emergence, 480 h, 62.5 gai/ha, 20 DAT), 60%; in the assay with Euphorbia heterophylla [4] (Euphorbia heterophylla, pre-emergence, 480 h, 62.5 gai/ha, 20 DAT) it was 0%; with Amaranthus retroflexus [7] (Amaranthus retroflexus, pre-emergence, 480 h, 62.5 gai/ha, 20 DAT) it was 0%; with Alopecurus myosuroides (Alopecurus myosuroides, pre-emergence, 480 h, 62.5 gai/ha, 20 DAT), 0%. This compound came in with a pest or weed control at 62.5 g/ha in the assay with Abutilon theophrasti [8] (Abutilon theophrasti, post-emergence, 480 h, 62.5 gai/ha, 20 DAT) of 0%.

For `CC(C)N(C(=O)SCC(Cl)=C(Cl)Cl)C(C)C` [Tri-Allate, Tri-allate], the pest or weed control at 600 g/ha in the assay with Commelina benghalensis (Commelina benghalensis, pre-emergence, 480 h, 600 gai/ha, 20 DAT) came out at 0%; in the assay on Ambrosia artemisiifolia (600 gai/ha) it was 10%; in the assay with Setaria viridis (Setaria viridis, pre-emergence, 480 h, 600 gai/ha, 20 DAT) it was 0%; with Abutilon theophrasti [2] (Abutilon theophrasti, pre-emergence, 480 h, 600 gai/ha, 20 DAT), 10%; in the assay on Amaranthus retroflexus [3] (Amaranthus retroflexus, post-emergence, 480 h, 600 gai/ha, 20 DAT), 25%; in the assay on Euphorbia heterophylla [4] (Euphorbia heterophylla, pre-emergence, 480 h, 600 gai/ha, 20 DAT), 10%. Further, the pest or weed control at 600 g/ha with Geranium pusillum (Geranium pusillum, post-emergence, 480 h, 600 gai/ha, 20 DAT) came out at 10%; with Ipomoea hederacea (600 gai/ha) it was 10%; in the assay with Euphorbia heterophylla [6] (Euphorbia heterophylla, post-emergence, 480 h, 600 gai/ha, 20 DAT), 10%; in the assay with Amaranthus retroflexus [7] (Amaranthus retroflexus, pre-emergence, 480 h, 600 gai/ha, 20 DAT), 10%; in the assay with Lolium multiflorum (Lolium multiflorum, pre-emergence, 480 h, 600 gai/ha, 20 DAT), 0%. In addition, the pest or weed control at 1200 g/ha was found to be 25% in the assay with Ambrosia artemisiifolia (1200 gai/ha); 45% in the assay on Amaranthus retroflexus [3] (Amaranthus retroflexus, post-emergence, 480 h, 1200 gai/ha, 20 DAT); 10% in the assay on Euphorbia heterophylla [4] (Euphorbia heterophylla, pre-emergence, 480 h, 1200 gai/ha, 20 DAT); 0% in the assay with Ipomoea hederacea (1200 gai/ha); 10% in the assay on Euphorbia heterophylla [6] (Euphorbia heterophylla, post-emergence, 480 h, 1200 gai/ha, 20 DAT); 10% with Amaranthus retroflexus [7] (Amaranthus retroflexus, pre-emergence, 480 h, 1200 gai/ha, 20 DAT). In addition, the pest or weed control at 1200 g/ha in the assay with Alopecurus myosuroides (Alopecurus myosuroides, pre-emergence, 480 h, 1200 gai/ha, 20 DAT) amounted to 0%; with Lolium multiflorum (Lolium multiflorum, pre-emergence, 480 h, 1200 gai/ha, 20 DAT), 10%; with Abutilon theophrasti [8] (Abutilon theophrasti, post-emergence, 480 h, 1200 gai/ha, 20 DAT), 0%.
